Read-outs that look alike come from different tables or passages of the source.
Experimental: The stability of clopidogrel besylate in the presence of various tabletting excipients was investigated. For this purpose, clopidogrel besylate was thoroughly triturated with the excipient in the ratio 1:1 and stored for two weeks at 40° C. and 75% relative humidity. The content of clopidogrel besylate in the sample was then determined.

- Clopidogrel besylate Residual content (%) (1:1 with AcDiSol, two weeks at 40° C. and 75% relative humidity): 94.00%
- Clopidogrel besylate Residual content (%) (1:1 with Lactose, two weeks at 40° C. and 75% relative humidity): 99.86%
- Clopidogrel besylate Residual content (%) (1:1 with Macrogol 6000, two weeks at 40° C. and 75% relative humidity): 90.07%
- Clopidogrel besylate Residual content (%) (1:1 with Mannitol, two weeks at 40° C. and 75% relative humidity): 99.85%
- Clopidogrel besylate Residual content (%) (1:1 with Mg-stearate, two weeks at 40° C. and 75% relative humidity): 51.99%
- Clopidogrel besylate Residual content (%) (1:1 with Microcrystalline cellulose, two weeks at 40° C. and 75% relative humidity): 99.24%
- Clopidogrel besylate Residual content (%) (1:1 with Silica, two weeks at 40° C. and 75% relative humidity): 99.44%
- Clopidogrel besylate Residual content (%) (1:1 with Stearic acid, two weeks at 40° C. and 75% relative humidity): 99.50%
- Clopidogrel besylate Residual content (%) (no excipient, stored two weeks at 40° C. and 75% relative humidity, content vs beginning of storage): 99.76%
- Compatibility with excipient (decomposition of the active substance) (with Macrogol 6000): incompatible
- Compatibility with excipient (decomposition of the active substance) (with Magnesium stearate): incompatible
- Compatibility with excipient (decomposition of the active substance) (with croscarmellose sodium (AcDiSol)): incompatible
- Compatibility with excipient (decomposition of the active substance) (with sodium lauryl sulfate): incompatible
Substance: 5-methyl-a-(4,5,6,7-tetrahydro[2,3-c]thienopyridyl)(2-chlorophenyl)acetate [Clopidogrel besylate]
